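Assay format: 96-well plates, 48-hour exposure. GI50 marks 50% less growth. TGI: total growth inhibition.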
Tests used:
Experiment in all cases: DTP human tumour cell line panel, 48 h
786-0 renal = system: 786-0 renal
A498 renal = system: A498 renal
A549 NSCLC = system: A549 NSCLC
ACHN renal = system: ACHN renal
BT-549 breast = system: BT-549 breast
CAKI-1 renal = system: CAKI-1 renal
CCRF-CEM leukemia = system: CCRF-CEM leukemia
COLO 205 colon = system: COLO 205 colon
DU-145 prostate = system: DU-145 prostate
EKVX NSCLC = system: EKVX NSCLC
HCC-2998 colon = system: HCC-2998 colon
HCT-116 colon = system: HCT-116 colon
HCT-15 colon = system: HCT-15 colon
HL-60(TB) leukemia = system: HL-60(TB) leukemia
HOP-62 NSCLC = system: HOP-62 NSCLC
HOP-92 NSCLC = system: HOP-92 NSCLC
HS 578T breast = system: HS 578T breast
HT29 colon = system: HT29 colon
IGROV1 ovarian = system: IGROV1 ovarian
K-562 leukemia = system: K-562 leukemia
KM12 colon = system: KM12 colon
LOX IMVI melanoma = system: LOX IMVI melanoma
M14 melanoma = system: M14 melanoma
MALME-3M melanoma = system: MALME-3M melanoma
MCF7 breast = system: MCF7 breast
MDA-MB-231 breast = system: MDA-MB-231 breast
MDA-MB-435 = system: MDA-MB-435
MOLT-4 leukemia = system: MOLT-4 leukemia
NCI-H226 lung = system: NCI-H226 lung
NCI-H23 lung = system: NCI-H23 lung
NCI-H460 lung = system: NCI-H460 lung
NCI-H522 lung = system: NCI-H522 lung
NCI/ADR-RES ovarian = system: NCI/ADR-RES ovarian
OVCAR-3 ovarian = system: OVCAR-3 ovarian
OVCAR-4 ovarian = system: OVCAR-4 ovarian
OVCAR-5 ovarian = system: OVCAR-5 ovarian
OVCAR-8 ovarian = system: OVCAR-8 ovarian
PC-3 prostate = system: PC-3 prostate
RPMI-8226 leukemia = system: RPMI-8226 leukemia
RXF 393 renal = system: RXF 393 renal
SF-268 CNS = system: SF-268 CNS
SF-295 CNS = system: SF-295 CNS
SF-539 CNS = system: SF-539 CNS
SK-MEL-2 melanoma = system: SK-MEL-2 melanoma
SK-MEL-28 melanoma = system: SK-MEL-28 melanoma
SK-MEL-5 melanoma = system: SK-MEL-5 melanoma
SK-OV-3 ovarian = system: SK-OV-3 ovarian
SN12C renal = system: SN12C renal
SNB-19 CNS = system: SNB-19 CNS
SNB-75 CNS = system: SNB-75 CNS
SR leukemia = system: SR leukemia
SW-620 colon = system: SW-620 colon
T-47D breast = system: T-47D breast
TK-10 renal = system: TK-10 renal
U251 CNS = system: U251 CNS
UACC-257 melanoma = system: UACC-257 melanoma
UACC-62 melanoma = system: UACC-62 melanoma
UO-31 renal = system: UO-31 renal

COc1ccc2[nH]c(O)c(C(=Nc3ccc(N(C)C(=O)CN4CCN(C)CC4)cc3)c3ccccc3)c2c1
GI50 (786-0 renal): 1.9 µM | TGI (786-0 renal): 5.52 µM | GI50 (A498 renal): 1.64 µM | TGI (A498 renal): 3.45 µM | GI50 (A549 NSCLC): 2.73 µM | TGI (A549 NSCLC): 14.1 µM | GI50 (ACHN renal): 2.54 µM | TGI (ACHN renal): 10.8 µM | GI50 (BT-549 breast): 1.55 µM | TGI (BT-549 breast): 3.19 µM | GI50 (CAKI-1 renal): 0.847 µM | TGI (CAKI-1 renal): 5.92 µM | GI50 (CCRF-CEM leukemia): 2.68 µM | TGI (CCRF-CEM leukemia): 10.4 µM | GI50 (COLO 205 colon): 0.575 µM | TGI (COLO 205 colon): 2.9 µM | GI50 (DU-145 prostate): 2.66 µM | TGI (DU-145 prostate): 11.8 µM | GI50 (EKVX NSCLC): 3.94 µM | TGI (EKVX NSCLC): 16.2 µM | GI50 (HCC-2998 colon): 2.47 µM | TGI (HCC-2998 colon): 8.59 µM | GI50 (HCT-116 colon): 0.562 µM | TGI (HCT-116 colon): 8.37 µM | GI50 (HCT-15 colon): 2.65 µM | TGI (HCT-15 colon): 12 µM | GI50 (HL-60(TB) leukemia): 0.88 µM | TGI (HL-60(TB) leukemia): 2.86 µM | GI50 (HOP-62 NSCLC): 1.12 µM | TGI (HOP-62 NSCLC): 12.3 µM | GI50 (HOP-92 NSCLC): 0.436 µM | TGI (HOP-92 NSCLC): 5.55 µM | GI50 (HS 578T breast): 1.09 µM | TGI (HS 578T breast): 4.67 µM | GI50 (HT29 colon): 0.341 µM | TGI (HT29 colon): 10.8 µM | GI50 (IGROV1 ovarian): 1.36 µM | TGI (IGROV1 ovarian): 10.1 µM | GI50 (K-562 leukemia): 0.609 µM | TGI (K-562 leukemia): 13.8 µM | GI50 (KM12 colon): 0.0197 µM | TGI (KM12 colon): 10.5 µM | GI50 (LOX IMVI melanoma): 1.02 µM | TGI (LOX IMVI melanoma): 2.19 µM | GI50 (M14 melanoma): 1.26 µM | TGI (M14 melanoma): 2.89 µM | GI50 (MALME-3M melanoma): 1.27 µM | TGI (MALME-3M melanoma): 2.85 µM | GI50 (MCF7 breast): 0.725 µM | TGI (MCF7 breast): 3.62 µM | GI50 (MDA-MB-231 breast): 1.88 µM | TGI (MDA-MB-231 breast): 5.17 µM | GI50 (MDA-MB-435): 1.29 µM | TGI (MDA-MB-435): 11.3 µM | GI50 (MOLT-4 leukemia): 1.45 µM | TGI (MOLT-4 leukemia): 4.99 µM | GI50 (NCI-H226 lung): 2.27 µM | TGI (NCI-H226 lung): 15.6 µM | GI50 (NCI-H23 lung): 1.73 µM | TGI (NCI-H23 lung): 12.2 µM | GI50 (NCI-H460 lung): 2.83 µM | TGI (NCI-H460 lung): 11.1 µM | GI50 (NCI-H522 lung): 2.52 µM | TGI (NCI-H522 lung): 8.96 µM | GI50 (NCI/ADR-RES ovarian): 11.1 µM | TGI (NCI/ADR-RES ovarian): 29.7 µM | GI50 (OVCAR-3 ovarian): 2.9 µM | TGI (OVCAR-3 ovarian): 7.31 µM | GI50 (OVCAR-4 ovarian): 2.13 µM | TGI (OVCAR-4 ovarian): 12.6 µM | GI50 (OVCAR-5 ovarian): 2.68 µM | TGI (OVCAR-5 ovarian): 16.4 µM | GI50 (OVCAR-8 ovarian): 3.24 µM | TGI (OVCAR-8 ovarian): 14 µM | GI50 (PC-3 prostate): 3.52 µM | TGI (PC-3 prostate): 17.5 µM | GI50 (RPMI-8226 leukemia): 2.5 µM | TGI (RPMI-8226 leukemia): 7.53 µM | GI50 (RXF 393 renal): 1.04 µM | TGI (RXF 393 renal): 2.36 µM | GI50 (SF-268 CNS): 2.1 µM | TGI (SF-268 CNS): 7.55 µM | GI50 (SF-295 CNS): 4.65 µM | TGI (SF-295 CNS): 15.8 µM | GI50 (SF-539 CNS): 1.04 µM | TGI (SF-539 CNS): 2.27 µM | GI50 (SK-MEL-2 melanoma): 2.12 µM | TGI (SK-MEL-2 melanoma): 5.37 µM | GI50 (SK-MEL-28 melanoma): 2.11 µM | TGI (SK-MEL-28 melanoma): 6.12 µM | GI50 (SK-MEL-5 melanoma): 1.75 µM | TGI (SK-MEL-5 melanoma): 3.43 µM | GI50 (SK-OV-3 ovarian): 2.96 µM | TGI (SK-OV-3 ovarian): 9.32 µM | GI50 (SN12C renal): 0.74 µM | TGI (SN12C renal): 10.4 µM | GI50 (SNB-19 CNS): 3.72 µM | TGI (SNB-19 CNS): 10.7 µM | GI50 (SNB-75 CNS): 1.07 µM | TGI (SNB-75 CNS): 2.64 µM | GI50 (SR leukemia): 0.23 µM | TGI (SR leukemia): 1.45 µM | GI50 (SW-620 colon): 1.78 µM | TGI (SW-620 colon): 11.4 µM | GI50 (T-47D breast): 3.54 µM | TGI (T-47D breast): 15.9 µM | GI50 (TK-10 renal): 1.99 µM | TGI (TK-10 renal): 7.08 µM | GI50 (U251 CNS): 1.84 µM | TGI (U251 CNS): 5.27 µM | GI50 (UACC-257 melanoma): 1.73 µM | TGI (UACC-257 melanoma): 4.08 µM | GI50 (UACC-62 melanoma): 5.01 µM | TGI (UACC-62 melanoma): 16.4 µM | GI50 (UO-31 renal): 1.45 µM | TGI (UO-31 renal): 8.45 µM

O=S(=O)(c1cc(Cl)ccc1Cl)n1ccnc1
TGI (786-0 renal): > 100 µM | TGI (A498 renal): 95 µM | TGI (A549 NSCLC): > 100 µM | TGI (ACHN renal): > 100 µM | TGI (BT-549 breast): > 100 µM | TGI (CAKI-1 renal): > 100 µM | TGI (CCRF-CEM leukemia): > 100 µM | TGI (COLO 205 colon): 34.1 µM | TGI (DU-145 prostate): > 100 µM | TGI (EKVX NSCLC): > 100 µM | TGI (HCC-2998 colon): 42.4 µM | TGI (HCT-116 colon): > 100 µM | TGI (HCT-15 colon): 89.5 µM | TGI (HL-60(TB) leukemia): 88 µM | TGI (HOP-62 NSCLC): > 100 µM | TGI (HOP-92 NSCLC): > 100 µM | TGI (HS 578T breast): > 100 µM | TGI (HT29 colon): > 100 µM | TGI (IGROV1 ovarian): > 100 µM | TGI (K-562 leukemia): > 100 µM | TGI (KM12 colon): > 100 µM | TGI (LOX IMVI melanoma): > 100 µM | TGI (M14 melanoma): > 100 µM | TGI (MALME-3M melanoma): > 100 µM | TGI (MCF7 breast): > 100 µM | TGI (MDA-MB-231 breast): 51.2 µM | TGI (MDA-MB-435): 37 µM | TGI (MOLT-4 leukemia): > 100 µM | TGI (NCI-H226 lung): 52.8 µM | TGI (NCI-H23 lung): 52.8 µM | TGI (NCI-H460 lung): > 100 µM | TGI (NCI-H522 lung): > 100 µM | TGI (NCI/ADR-RES ovarian): 45.7 µM | TGI (OVCAR-3 ovarian): > 100 µM | TGI (OVCAR-4 ovarian): > 100 µM | TGI (OVCAR-5 ovarian): > 100 µM | TGI (OVCAR-8 ovarian): > 100 µM | TGI (PC-3 prostate): > 100 µM | TGI (RPMI-8226 leukemia): 91.6 µM | TGI (RXF 393 renal): 74.1 µM | TGI (SF-268 CNS): > 100 µM | TGI (SF-295 CNS): > 100 µM | TGI (SF-539 CNS): 39.3 µM | TGI (SK-MEL-2 melanoma): > 100 µM | TGI (SK-MEL-28 melanoma): > 100 µM | TGI (SK-MEL-5 melanoma): 53.9 µM | TGI (SK-OV-3 ovarian): > 100 µM | TGI (SN12C renal): 84.4 µM | TGI (SNB-19 CNS): > 100 µM | TGI (SNB-75 CNS): > 100 µM | TGI (SR leukemia): 70.9 µM | TGI (SW-620 colon): > 100 µM | TGI (T-47D breast): > 100 µM | TGI (TK-10 renal): > 100 µM | TGI (U251 CNS): > 100 µM | TGI (UACC-257 melanoma): > 100 µM | TGI (UACC-62 melanoma): > 100 µM | TGI (UO-31 renal): > 100 µM

From PubChem BioAssay (NCI)
